Measured values published in US5011833A, “Novel derivatives of 6,11-dihydro-dibenzo(C,F)(1,2,5)-thiadiazepine 5,5-dioxide, salts thereof and appropriate processes for the preparation thereof” (A. Menarini Industrie Farmaceutiche Riunite, priority 1988, dated 1991).
Read-outs that look alike come from different tables or passages of the source.

Assays:
[1] = acute oral toxicity (LD-50); details: mouse, in vivo
[2] = test system: hypothermia induced by apomorphine; experiment: inhibition of hypothermia induced by apomorphine (apomorphine test); details: Mus musculus, po, 1 h, read-out: Hypothermia inhibition from Apo16: ED-50
convulsions = details: in vivo
motor activity = details: in vivo
blood pressure = details: in vivo
anticholinergic effect = details: in vivo
cardio-toxic = details: in vivo
duodenal ulcers = experiment: effect on duodenal ulcers; details: in vivo
[3] = Swiss male mice, after 14 days, read-out: LD-50

SMILES | LD50 at 336 h [1, 3] [mg/kg] | ED50 [2] [mg/kg] | further results
CCN(CC)CC(=O)N1c2ccccc2N(C)S(=O)(=O)c2ccccc21 [Compound 3, 6-Methyl-6,11-dihydro-11-(N,N-diethylamino-acetyl)dibenzo[c,f][1,2,5]thiadiazepine 5,5-dioxide] | > 2000 | 15 to 25 | –
CN(C)CCCN1c2ccccc2CCc2ccccc21 [imipramine, reference compound] | – | 4 to 15 | –
Cc1ccc2c(c1)N(C(=O)CN(C)C)c1ccccc1S(=O)(=O)N2C [Compound 6, 6,9-dimethyl-6,11-dihydro-11-(N,N-dimethylaminoacetyl)-dibenzo[c,f][1,2,5]thiadiazepine 5,5-dioxide] | 1500 to 2000 | 4 to 15 | –
CN(C)CC(=O)N1c2ccc(Cl)cc2N(C)S(=O)(=O)c2ccccc21 [Compound 5, 8-chloro-6-methyl-6,11-dihydro-11-(N,N-dimethylamino-acethyl)-dibenzo[c,f][1,2,5]thiadiazepine 5,5-dioxide] | 1000 to 1500 | 15 to 25 | –
CN(C)CCC(=O)N1c2ccccc2N(C)S(=O)(=O)c2ccccc21.Cl [Compound 4, 6-Methyl-6,11-dihydro-11-[3-(N,N-dimethylamino)propionyl]dibenzo[c,f][1,2,5]thiadiazepine 5,5-dioxide hydrochloride] | 500 to 700 | 15 to 25 | –
CN(C)CC(=O)N1c2ccccc2N(C)S(=O)(=O)c2ccccc21 [Compound 1, 6-Methyl-6,11-dihydro-11-(N,N-dimethylaminoacetyl)dibenzo[c,f][1,2,5]thiadiazepine 5,5-dioxide] | 1500 to 2000 | 4 to 15 | LD50 at 336 h ([1]; mice, read-out: oral LD-50): 1920 mg/kg; convulsions (convulsions): does not induce convulsions; motor activity (motor activity): does not alter the motor activity; blood pressure (blood pressure): does not alter the blood pressure; anticholinergic effect (anticholinergic effect): induces very weak anticholinergic effects; cardio-toxicity (cardio-toxic): is not cardio-toxic; duodenal ulcers (duodenal ulcers): reduces duodenal ulcers
CN(C)CCCN1c2ccccc2N(C)S(=O)(=O)c2ccccc21 [reference compound] | – | – | LD50 at 336 h ([1]; mice, read-out: oral LD-50): 655 mg/kg; convulsions (convulsions): induces convulsions; motor activity (motor activity): increases the motor activity; blood pressure (blood pressure): increases the blood pressure; anticholinergic effect (anticholinergic effect): possesses anticholinergic effect
CNCC(=O)N1c2ccccc2N(C)S(=O)(=O)c2ccccc21 [Compound 2] | 750 to 1000 | 4 to 15 | –
